In general, IC50 refers to the concentration at which inhibition is half-maximal.

This experiment has as its target T1, Axl (Homo sapiens, UniProt P30530).
T1 sequence (P30530 26-894): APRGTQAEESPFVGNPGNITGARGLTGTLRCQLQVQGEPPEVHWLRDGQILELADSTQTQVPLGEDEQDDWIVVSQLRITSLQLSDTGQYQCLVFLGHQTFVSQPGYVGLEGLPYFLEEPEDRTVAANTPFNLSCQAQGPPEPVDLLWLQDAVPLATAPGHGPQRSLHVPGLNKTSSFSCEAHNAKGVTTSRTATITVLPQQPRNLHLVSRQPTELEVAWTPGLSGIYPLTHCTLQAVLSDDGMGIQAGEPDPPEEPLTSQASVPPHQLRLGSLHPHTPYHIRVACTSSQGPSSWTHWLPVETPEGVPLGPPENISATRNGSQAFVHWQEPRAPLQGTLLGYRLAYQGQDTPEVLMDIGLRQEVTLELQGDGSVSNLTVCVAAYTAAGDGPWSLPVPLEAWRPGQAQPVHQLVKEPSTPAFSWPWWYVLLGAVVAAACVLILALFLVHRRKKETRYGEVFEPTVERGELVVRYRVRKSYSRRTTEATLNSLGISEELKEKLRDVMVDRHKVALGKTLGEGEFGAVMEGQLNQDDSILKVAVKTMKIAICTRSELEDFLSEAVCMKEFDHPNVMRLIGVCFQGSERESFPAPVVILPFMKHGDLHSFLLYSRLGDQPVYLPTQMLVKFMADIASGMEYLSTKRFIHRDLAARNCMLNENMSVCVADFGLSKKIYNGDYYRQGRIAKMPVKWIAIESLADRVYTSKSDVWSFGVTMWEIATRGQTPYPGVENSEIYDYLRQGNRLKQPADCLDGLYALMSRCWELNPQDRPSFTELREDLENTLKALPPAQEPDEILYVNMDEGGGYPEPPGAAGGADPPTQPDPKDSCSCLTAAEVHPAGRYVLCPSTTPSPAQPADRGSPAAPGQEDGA
The experiment is described as follows: Axl NanoBRET intracellular kinase assay (Cell Binding). Set-up: host or cells: HEK-293. The conditions noted are these: HEK-293 cells transfected with Axl-NanoLuc fusion vector; displacement of K-5 NanoBRET tracer. On the procedure:
Axl NanoBRET™ intracellular kinase assay (Promega, N2540) was performed according to manufacturer's recommendation. In brief, HEK-293 cells are transiently transfected with Axl-NanoLuc fusion vector (Promega, NV1071), utilizing Fugene HD transfection reagent (Promega, E2311) a day before experiment following manufacturer's recommendation.
The day of the assay, the cells were collected and resuspended in Opti-MEM media (ThermoFisher, 31985070) at 2e5 cells/mL concentration. Testing compounds were serial diluted and dispensed into a white 384 well polystyrene plate at 200 nL in 100% DMSO. 40 μL of resuspended cells is then added per well for a final condition of 8K cells/well with 0.5% DMSO. After one-hour compound pre-incubation at 37° C. and 5% CO2, cells were further incubated with 0.35 μM K-5 NanoBRET tracer for two-hours at 37° C. and 5% CO2. […] of 3× substrate plus Inhibitor solution was prepared according to kits manual and added to the cells followed by a 30 second pulse centrifugation spin. The plate was then immediately read utilizing an Envision (Perkin Elmer) plate reader. The BRET signal is measured by taking the ratio of the emissions reading at 610 nm and 450 nm. Compound binding is based on the decrease BRET signal caused by the displacement of the K-5 tracer. […] IC50 value of compounds was determined by 4-parameter non-linear regression fitting of percent activity in GraphPad Prism software.
On the technique in general: Bioluminescence resonance energy transfer reports proximity on the nanometre scale.
With `O=C1NCCOc2cc(-c3n[nH]c4ncc(-c5ccc6c(c5)CCC(N5CCC5)CC6)cc34)ccc21` (stereo not drawn) [Example 52, 8-(5-(7-(Azetidin-1-yl)-6,7,8,9-tetrahydro-5H-benzo[7]annulen-2-yl)-1H-pyrazolo[3,4-b]pyridin-3-yl)-3,4-dihydrobenzo[f][1,4]oxazepin-5(2H)-one], the IC50 is less than 100 nM.

`CC1(N2CCCC2)CCc2ccc(-c3cnc4[nH]nc(-c5ccc6c(c5)OCCNC6=O)c4c3)cc2CC1` (stereo not drawn) [Example 22, 8-{5-[7-Methyl-7-(pyrrolidin-1-yl)-6,7,8,9-tetrahydro-5H-benzo[7]annulen-2-yl]-1H-pyrazolo[3,4-b]pyridin-3-yl}-2,3,4,5-tetrahydro-1,4-benzoxazepin-5-one] had a half-inhibitory concentration (IC50) of less than 100 nM.

With `CC(C)C(=O)N1CCc2ccc(-c3cnc4[nH]nc(-c5ccc6c(c5)OCCNC6=O)c4c3)cc2CC1` [Example 16, 8-{5-[3-(2-Methylpropanoyl)-2,3,4,5-tetrahydro-1H-3-benzazepin-7-yl]-1H-pyrazolo[3,4-b]pyridin-3-yl}-2,3,4,5-tetrahydro-1,4-benzoxazepin-5-one], the IC50 fell in the range of 100 to 1000 nM.

In turn, `O=C1NCCOc2cc(-c3n[nH]c4ncc(-c5ccc6c(c5)CCC(N5CCC[C@H]5CO)CC6)cc34)ccc21` (stereo partly drawn) [Example 50, 8-(5-{7-[(2S)-2-(Hydroxymethyl)pyrrolidin-1-yl]-6,7,8,9-tetrahydro-5H-benzo[7]annulen-2-yl}-1H-pyrazolo[3,4-b]pyridin-3-yl)-2,3,4,5-tetrahydro-1,4-benzoxazepin-5-one] yielded an IC50 of less than 100 nM.

Take `CC1(O)CCc2cc(-c3n[nH]c4ncc(-c5ccc6c(c5)CC[C@@H](N5CCCC5)CC6)cc34)ccc21` (stereo partly drawn) [Example 30, 1-Methyl-5-{5-[(7S)-7-(pyrrolidin-1-yl)-6,7,8,9-tetrahydro-5H-benzo[7]annulen-2-yl]-1H-pyrazolo[3,4-b]pyridin-3-yl}-2,3-dihydro-1H-inden-1-ol]: the IC50 was less than 100 nM.

As to `O=C1NCCOc2cc(-c3n[nH]c4ncc(-c5ccc6c(c5)CC[C@H](N5CCCC5)CC6)cc34)ccc21` (single isomer, unassigned) [Example 56], the 50% inhibitory concentration (IC50) is less than 100 nM.

`CC1(O)CCOc2cc(-c3n[nH]c4ncc(-c5ccc6c(c5)CC[C@@H](N5CCCC5)CC6)cc34)ccc21` (stereo partly drawn) [Example 31, 4-Methyl-7-{5-[(7S)-7-(pyrrolidin-1-yl)-6,7,8,9-tetrahydro-5H-benzo[7]annulen-2-yl]-1H-pyrazolo[3,4-b]pyridin-3-yl}-3,4-dihydro-2H-1-benzopyran-4-ol] showed an IC50 of less than 100 nM.

With `Cc1cc2c(cc1-c1cnc3[nH]nc(-c4ccc5c(c4)OCCNC5=O)c3c1)CCC(N1CCC[C@H]1C)CC2` (stereo partly drawn) [Example 64, 8-(5-{3-Methyl-7-[(2R)-2-methylpyrrolidin-1-yl]-6,7,8,9-tetrahydro-5H-benzo[7]annulen-2-yl}-1H-pyrazolo[3,4-b]pyridin-3-yl)-2,3,4,5-tetrahydro-1,4-benzoxazepin-5-one], the IC50 was less than 100 nM.

Molecule `O=C1NCCOc2cc(-c3n[nH]c4ncc(-c5ccc6c(c5)CCN(C5CCCC5)C6)cc34)ccc21` [Example 9, 8-(5-(2-Cyclopentyl-1,2,3,4-tetrahydroisoquinolin-6-yl)-1H-pyrazolo[3,4-b]pyridin-3-yl)-3,4-dihydrobenzo[f][1,4]oxazepin-5(2H)-one] showed an IC50 of less than 100 nM.

`O=C1NCCOc2cc(-c3n[nH]c4ncc(-c5ccc6c(c5)CCC(N5CCCC5)C6)cc34)ccc21` (stereo not drawn) [Example 2, 8-{5-[6-(Pyrrolidin-1-yl)-5,6,7,8-tetrahydronaphthalen-2-yl]-1H-pyrazolo[3,4-b]pyridin-3-yl}-2,3,4,5-tetrahydro-1,4-benzoxazepin-5-one] gave an IC50 of less than 100 nM.

`C[C@@H]1CCCN1C1CCc2ccc(-c3cnc4[nH]nc(-c5ccc6c(c5)OCCNC6=O)c4c3)cc2CC1` (stereo partly drawn) [Example 44, 8-(5-{7-[(2R)-2-Methylpyrrolidin-1-yl]-6,7,8,9-tetrahydro-5H-benzo[7]annulen-2-yl}-1H-pyrazolo[3,4-b]pyridin-3-yl)-2,3,4,5-tetrahydro-1,4-benzoxazepin-5-one] returned an IC50 of less than 100 nM.

In turn, `O=C1NCCOc2cc(-c3n[nH]c4ncc(-c5ccc6c(c5)CCC(N5CCC[C@@H]5CO)CC6)cc34)ccc21` (stereo partly drawn) [Example 49, 8-(5-{7-[(2R)-2-(Hydroxymethyl)pyrrolidin-1-yl]-6,7,8,9-tetrahydro-5H-benzo[7]annulen-2-yl}-1H-pyrazolo[3,4-b]pyridin-3-yl)-2,3,4,5-tetrahydro-1,4-benzoxazepin-5-one] gave an IC50 of less than 100 nM.

For `O=C1NCCOc2cc(-c3n[nH]c4ncc(-c5ccc6c(c5)CNCC6)cc34)ccc21` [Example 55, 8-(5-(1,2,3,4-Tetrahydroisoquinolin-7-yl)-1H-pyrazolo[3,4-b]pyridin-3-yl)-3,4-dihydrobenzo[f][1,4]oxazepin-5(2H)-one], the half-maximal inhibitory concentration (IC50) lay within 100 to 1000 nM.

In turn, `O=C1NCCOc2cc(-c3n[nH]c4ncc(-c5ccc6c(c5)CC[C@@H](N5CCCC5)CC6)cc34)ccc21` (single isomer, unassigned) [Example 57] returned a half-maximal inhibitory concentration (IC50) of less than 100 nM.

As for `CC1(C)COc2cc(-c3n[nH]c4ncc(-c5ccc6c(c5)CCC(N5CCCC5)CC6)cc34)ccc2C(=O)N1` (stereo not drawn) [Example 35, 3,3-Dimethyl-8-{5-[7-(pyrrolidin-1-yl)-6,7,8,9-tetrahydro-5H-benzo[7]annulen-2-yl]-1H-pyrazolo[3,4-b]pyridin-3-yl}-2,3,4,5-tetrahydro-1,4-benzoxazepin-5-one], the IC50 was less than 100 nM.

In turn, `CC1(O)CCCCc2cc(-c3n[nH]c4ncc(-c5ccc6c(c5)CCN(C5CCCC5)CC6)cc34)ccc21` (stereo not drawn) [Example 27, 2-[5-(3-Cyclopentyl-2,3,4,5-tetrahydro-1H-3-benzazepin-7-yl)-1H-pyrazolo[3,4-b]pyridin-3-yl]-5-methyl-6,7,8,9-tetrahydro-5H-benzo[7]annulen-5-ol] came in with an IC50 of 100 to 1000 nM.

For the molecule `C[C@@H]1CCCN1C1CCc2ccc(-c3cnc4[nH]nc(-c5ccc6c(c5)OCC5(CCC5)NC6=O)c4c3)cc2CC1` (stereo partly drawn) [Example 37, 8-(5-{7-[(2R)-2-Methylpyrrolidin-1-yl]-6,7,8,9-tetrahydro-5H-benzo[7]annulen-2-yl}-1H-pyrazolo[3,4-b]pyridin-3-yl)-4,5-dihydro-2H-spiro[1,4-benzoxazepine-3,1′-cyclobutan]-5-one], the IC50 is less than 100 nM.

Molecule `CC1(C)NS(=O)(=O)c2cc(-c3n[nH]c4ncc(-c5ccc6c(c5)CCC(N5CCCC5)CC6)cc34)ccc21` (stereo not drawn) [Example 32, 3,3-Dimethyl-6-{5-[7-(pyrrolidin-1-yl)-6,7,8,9-tetrahydro-5H-benzo[7]annulen-2-yl]-1H-pyrazolo[3,4-b]pyridin-3-yl}-2,3-dihydro-1λ^6,2-benzothiazole-1,1-dione] gave an IC50 of less than 100 nM.

`O=C1NCCOc2cc(-c3n[nH]c4ncc(-c5ccc6c(c5)CN(C5CCCC5)CC6)cc34)ccc21` [Example 10, 8-(5-(2-Cyclopentyl-1,2,3,4-tetrahydroisoquinolin-7-yl)-1H-pyrazolo[3,4-b]pyridin-3-yl)-3,4-dihydrobenzo[f][1,4]oxazepin-5(2H)-one] registered an IC50 of 100 to 1000 nM.

The molecule `C[C@H]1CCCN1C1(C)CCc2ccc(-c3cnc4[nH]nc(-c5ccc6c(c5)OCCNC6=O)c4c3)cc2CC1` (stereo partly drawn) [Example 24, 8-(5-{7-Methyl-7-[(2S)-2-methylpyrrolidin-1-yl]-6,7,8,9-tetrahydro-5H-benzo[7]annulen-2-yl}-1H-pyrazolo[3,4-b]pyridin-3-yl)-2,3,4,5-tetrahydro-1,4-benzoxazepin-5-one] showed an IC50 of less than 100 nM.

Molecule `C[C@@H]1CCCN1C1CCc2ccc(-c3cnc4[nH]nc(-c5ccc6c(c5)OCC5(CC5)NC6=O)c4c3)cc2CC1` (stereo partly drawn) [Example 36, 8-(5-{7-[(2R)-2-Methylpyrrolidin-1-yl]-6,7,8,9-tetrahydro-5H-benzo[7]annulen-2-yl}-1H-pyrazolo[3,4-b]pyridin-3-yl)-4,5-dihydro-2H-spiro[1,4-benzoxazepine-3,1′-cyclopropan]-5-one] yielded an IC50 of less than 100 nM.

The values above are taken from patent US20240226115A1, “AXL INHIBITOR COMPOUNDS” (ARCUS BIOSCIENCES, INC., priority 2021, published 2024).
